Experimental data taken from ChEMBL document CHEMBL4311992, “Discovery of 3-(((9H-purin-6-yl)amino)methyl)-4,6-dimethylpyridin-2(1H)-one derivatives as novel tubulin polymerization inhibitors for treatment of cancer” (Eur J Med Chem, 2019).
The source made the active and inactive calls. No cut-off for these calls is given here.

Tests used:
HCT-116 [1] = experiment: Inhibition of colony formation in human HCT116 cells at 50 nM after 14 days by crystal violet staining-based microscopic analysis; type: functional; conditions: HCT-116, 336 h
[2] = molecular target: Serine/threonine-protein kinase SBK1 (Homo sapiens) (UniProt Q52WX2); experiment: Inhibition of recombinant full-length human SBK1 assessed as residual activity at 10 uM using KKLRRTLSVA as substrate measured after 120 mins in presence of [gamma33P]ATP by scintillation counting method
Sequence of Serine/threonine-protein kinase SBK1 (Homo sapiens) (Q52WX2 whole entry): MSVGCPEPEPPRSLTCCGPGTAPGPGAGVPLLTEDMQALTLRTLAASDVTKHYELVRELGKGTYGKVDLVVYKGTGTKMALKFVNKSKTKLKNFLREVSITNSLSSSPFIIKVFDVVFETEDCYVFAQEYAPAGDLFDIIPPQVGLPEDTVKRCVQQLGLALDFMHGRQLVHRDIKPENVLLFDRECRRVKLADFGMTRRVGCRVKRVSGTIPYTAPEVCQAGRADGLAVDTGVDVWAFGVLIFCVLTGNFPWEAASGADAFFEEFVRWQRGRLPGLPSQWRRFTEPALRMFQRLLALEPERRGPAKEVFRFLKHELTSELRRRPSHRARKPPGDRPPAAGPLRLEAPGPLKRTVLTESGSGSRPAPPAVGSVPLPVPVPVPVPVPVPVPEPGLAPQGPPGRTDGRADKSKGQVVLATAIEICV

[3] = molecular target: Serine/threonine-protein kinase NLK (Homo sapiens) (UniProt Q9UBE8); experiment: Inhibition of recombinant human NLK (121 to end residues) assessed as residual activity at 10 uM using myelin basic protein as substrate measured after 40 mins in presence of [gamma33P]ATP by scintillation counting method
[4] = test system: Hepatocyte growth factor receptor (Homo sapiens), P08581 [Y1230C]; experiment: Inhibition of recombinant human MET A1209G/V1290L/Y1248C mutant (974 to end residues) assessed as residual activity at 10 uM using KKKGQEEEYVFIE as substrate measured after 40 mins in presence of [gamma33P]ATP by scintillation counting method
[5] = molecular target: Hepatocyte growth factor receptor (Homo sapiens) (UniProt P08581); experiment: Inhibition of recombinant human MET A1209G/V1290L mutant (974 to end residues) assessed as residual activity at 10 uM using KKKGQEEEYVFIE as substrate measured after 40 mins in presence of [gamma33P]ATP by scintillation counting method
[6] = molecular target: Mitogen-activated protein kinase kinase kinase 2 (Homo sapiens) (UniProt Q9Y2U5); experiment: Inhibition of recombinant full-length human MEKK2 assessed as residual activity at 10 uM using myelin basic protein as substrate measured after 40 mins in presence of [gamma33P]ATP by scintillation counting method
Sequence of Mitogen-activated protein kinase kinase kinase 2 (Homo sapiens) (Q9Y2U5 whole entry, the tested form may be a part): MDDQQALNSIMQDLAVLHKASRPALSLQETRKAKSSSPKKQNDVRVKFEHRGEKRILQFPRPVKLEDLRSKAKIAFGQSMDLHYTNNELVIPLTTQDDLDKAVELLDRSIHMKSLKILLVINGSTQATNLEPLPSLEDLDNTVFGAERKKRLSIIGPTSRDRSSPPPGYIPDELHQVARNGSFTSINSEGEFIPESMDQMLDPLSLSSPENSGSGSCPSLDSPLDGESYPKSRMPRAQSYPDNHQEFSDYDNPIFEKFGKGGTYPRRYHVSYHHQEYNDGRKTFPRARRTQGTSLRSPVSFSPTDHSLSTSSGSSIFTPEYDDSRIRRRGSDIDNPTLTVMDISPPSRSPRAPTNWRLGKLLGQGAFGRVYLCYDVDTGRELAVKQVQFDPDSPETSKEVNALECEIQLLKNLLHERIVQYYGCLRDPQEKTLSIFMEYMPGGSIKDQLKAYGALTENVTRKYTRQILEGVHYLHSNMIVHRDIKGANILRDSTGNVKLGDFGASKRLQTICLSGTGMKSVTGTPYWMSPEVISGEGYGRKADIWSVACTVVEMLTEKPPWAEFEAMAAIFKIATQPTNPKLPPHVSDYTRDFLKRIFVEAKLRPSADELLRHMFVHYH

Mus musculus = species: Mus musculus; experiment: Inhibition of recombinant full-length mouse PI3K p110alpha/p65alpha (1 to 571 residues) assessed as residual activity at 10 uM using phosphatidylinositol-4, 5-bisphosphate as substrate measured after 40 mins by HTRF assay
[7] = molecular target: Tyrosine-protein kinase Fer (Homo sapiens) (UniProt P16591); experiment: Inhibition of recombinant human FER (541 to end residues) assessed as residual activity at 10 uM using KKKSPGEYVNIEFG as substrate measured after 40 mins in presence of [gamma33P]ATP by scintillation counting method
[8] = molecular target: Ephrin type-A receptor 7 (Homo sapiens) (UniProt Q15375); experiment: Inhibition of recombinant human EphA7 (613 to 909 residues) assessed as residual activity at 10 uM using KTFCGTPEYLAPEVRREPRILSEEEQEMFRDFDYIADWC as substrate measured after 40 mins in presence of [gamma33P]ATP by scintillation counting method
[9] = molecular target: Proto-oncogene tyrosine-protein kinase Src (Homo sapiens) (UniProt P12931); experiment: Inhibition of recombinant full-length human SRC assessed as residual activity at 10 uM using Cdc2 peptide as substrate measured after 40 mins in presence of [gamma33P]ATP by scintillation counting method
Sequence of Proto-oncogene tyrosine-protein kinase Src (Homo sapiens) (P12931 2-536 limits assumed): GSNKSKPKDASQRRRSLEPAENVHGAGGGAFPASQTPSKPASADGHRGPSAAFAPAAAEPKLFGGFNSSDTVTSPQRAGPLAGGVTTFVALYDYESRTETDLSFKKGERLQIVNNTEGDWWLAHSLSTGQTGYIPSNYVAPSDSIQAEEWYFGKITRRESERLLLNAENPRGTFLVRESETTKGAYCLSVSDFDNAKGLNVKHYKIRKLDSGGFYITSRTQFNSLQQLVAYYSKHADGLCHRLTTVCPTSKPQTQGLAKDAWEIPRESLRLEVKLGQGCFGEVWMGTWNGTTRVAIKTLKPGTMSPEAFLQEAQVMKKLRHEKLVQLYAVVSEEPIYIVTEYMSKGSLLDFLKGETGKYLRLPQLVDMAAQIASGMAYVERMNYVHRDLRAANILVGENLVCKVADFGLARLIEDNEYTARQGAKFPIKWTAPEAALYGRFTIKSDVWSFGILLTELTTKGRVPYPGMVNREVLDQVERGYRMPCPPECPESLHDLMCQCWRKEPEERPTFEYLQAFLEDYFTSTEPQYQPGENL

[10] = test system: Calcium/calmodulin-dependent protein kinase kinase 2 (Homo sapiens), Q96RR4 [T85S]; experiment: Inhibition of recombinant full-length human CAMKk2 T85S mutant assessed as residual activity at 10 uM using calmodulin as substrate measured after 40 mins in presence of [gamma33P]ATP by scintillation counting method
[11] = molecular target: Casein kinase II subunit alpha (Homo sapiens) (UniProt P68400); experiment: Inhibition of recombinant full length human CK2alpha1 assessed as residual activity at 10 uM using RRRDDDSDDD as substrate measured after 40 mins in presence of [gamma33P]ATP by scintillation counting method
Sequence of Casein kinase II subunit alpha (Homo sapiens) (P68400 whole entry, looked up): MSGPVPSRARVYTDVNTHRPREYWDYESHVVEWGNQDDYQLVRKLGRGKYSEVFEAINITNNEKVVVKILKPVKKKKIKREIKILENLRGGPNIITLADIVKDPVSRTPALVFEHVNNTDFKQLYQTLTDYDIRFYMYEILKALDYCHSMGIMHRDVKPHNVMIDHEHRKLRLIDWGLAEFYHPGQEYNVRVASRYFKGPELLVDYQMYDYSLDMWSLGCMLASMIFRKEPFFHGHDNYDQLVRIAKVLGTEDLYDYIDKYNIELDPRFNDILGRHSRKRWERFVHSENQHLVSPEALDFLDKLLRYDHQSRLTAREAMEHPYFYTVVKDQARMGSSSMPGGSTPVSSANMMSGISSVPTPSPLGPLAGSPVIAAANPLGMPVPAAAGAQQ

[12] = molecular target: Dual specificity protein kinase CLK1 (Homo sapiens) (UniProt P49759); experiment: Inhibition of recombinant human CLK1 (130 to end residues) assessed as residual activity at 10 uM using ERMRPRKRQGSVRRRV as substrate measured after 40 mins in presence of [gamma33P]ATP by scintillation counting method
Sequence of Dual specificity protein kinase CLK1 (Homo sapiens) (P49759 whole entry, looked up): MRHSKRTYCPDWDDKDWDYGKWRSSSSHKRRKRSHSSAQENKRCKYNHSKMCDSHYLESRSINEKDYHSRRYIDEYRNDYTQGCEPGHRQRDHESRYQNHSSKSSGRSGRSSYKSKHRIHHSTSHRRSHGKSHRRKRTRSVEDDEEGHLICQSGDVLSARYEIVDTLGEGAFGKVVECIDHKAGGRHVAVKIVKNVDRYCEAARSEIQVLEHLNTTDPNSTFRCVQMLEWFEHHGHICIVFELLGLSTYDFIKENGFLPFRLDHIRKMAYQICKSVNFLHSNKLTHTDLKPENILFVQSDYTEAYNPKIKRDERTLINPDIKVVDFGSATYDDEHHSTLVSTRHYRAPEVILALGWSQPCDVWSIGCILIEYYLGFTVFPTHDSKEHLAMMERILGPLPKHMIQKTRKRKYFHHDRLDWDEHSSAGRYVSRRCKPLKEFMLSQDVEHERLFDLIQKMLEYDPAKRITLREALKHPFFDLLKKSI

HCT-116 [13] = experiment: Cell cycle arrest in human HCT116 cells assessed as up regulation of cdc25 expression up to 150 nM after 24 hrs by Western blot analysis; type: functional, cell-based
HCT-116 [14] = experiment: Induction of apoptosis in human HCT116 cells assessed as early apoptotic cells at 25 nM measured after 48 hrs by Annexin V-FITC/propidium iodide staining-based flow cytometry (reference value: 0.418%); type: functional
SW-620 [15] = experiment: Induction of apoptosis in human SW620 cells assessed as increase in cleaved PARP expression up to 200 nM measured after 48 hrs by Western blot analysis; type: functional, cell-based
[16] = Cardiotoxicity in nude BALB/c mouse at 80 mg/kg, po administered once daily for 4 weeks measured post-last dose by hematoxylin and eosin staining-based assay; type: toxicity, organism-based; conditions: in vivo, 672 h
[17] = test system: Serine/threonine-protein kinase Chk2 (Homo sapiens), O96017 [R145W]; experiment: Inhibition of recombinant human CHK2 R145W mutant (5 to end residues) assessed as residual activity at 10 uM using KKKVSRSGLYRSPSMPENLNRPR as substrate measured after 40 mins in presence of [gamma33P]ATP by scintillation counting method
[18] = molecular target: Casein kinase I isoform delta (Homo sapiens) (UniProt P48730); experiment: Inhibition of recombinant human CK1delta (1 to 294 residues) assessed as residual activity at 10 uM using KRRRALS(p)VASLPGL as substrate measured after 40 mins in presence of [gamma33P]ATP by scintillation counting method
[19] = molecular target: Ephrin type-A receptor 2 (Homo sapiens) (UniProt P29317); experiment: Inhibition of recombinant human EphA2 (596 to 900 residues) assessed as residual activity at 10 uM using poly(Glu, Tyr) 4:1 as substrate measured after 40 mins in presence of [gamma33P]ATP by scintillation counting method
Sequence of Ephrin type-A receptor 2 (Homo sapiens) (P29317 whole entry, the tested form may be a part): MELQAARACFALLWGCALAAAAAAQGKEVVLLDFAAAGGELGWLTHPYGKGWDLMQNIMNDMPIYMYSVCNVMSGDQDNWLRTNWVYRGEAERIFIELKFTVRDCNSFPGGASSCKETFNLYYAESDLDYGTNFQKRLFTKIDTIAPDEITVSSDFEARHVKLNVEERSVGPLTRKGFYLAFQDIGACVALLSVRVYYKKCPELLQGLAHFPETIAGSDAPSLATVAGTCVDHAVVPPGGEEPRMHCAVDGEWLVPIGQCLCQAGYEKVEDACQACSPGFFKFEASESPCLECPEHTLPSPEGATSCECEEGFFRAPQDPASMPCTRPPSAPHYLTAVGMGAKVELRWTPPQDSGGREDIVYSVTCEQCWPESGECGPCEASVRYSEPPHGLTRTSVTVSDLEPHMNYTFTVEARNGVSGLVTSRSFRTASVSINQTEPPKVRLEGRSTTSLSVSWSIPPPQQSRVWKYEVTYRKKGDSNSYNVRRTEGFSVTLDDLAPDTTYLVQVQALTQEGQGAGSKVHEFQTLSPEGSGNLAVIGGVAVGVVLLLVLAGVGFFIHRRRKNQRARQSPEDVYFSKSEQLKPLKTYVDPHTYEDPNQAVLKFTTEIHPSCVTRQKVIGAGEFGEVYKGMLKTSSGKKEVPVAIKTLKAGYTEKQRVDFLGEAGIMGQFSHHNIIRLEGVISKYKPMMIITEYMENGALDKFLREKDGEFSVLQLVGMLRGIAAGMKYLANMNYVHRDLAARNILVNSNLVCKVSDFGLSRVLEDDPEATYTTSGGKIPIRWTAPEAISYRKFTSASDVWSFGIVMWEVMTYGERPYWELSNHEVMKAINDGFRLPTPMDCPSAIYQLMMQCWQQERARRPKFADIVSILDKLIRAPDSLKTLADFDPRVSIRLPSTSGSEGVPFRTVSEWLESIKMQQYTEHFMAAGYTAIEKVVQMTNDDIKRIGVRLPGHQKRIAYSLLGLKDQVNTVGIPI

[20] = molecular target: Tyrosine-protein kinase Fyn (Homo sapiens) (UniProt P06241); experiment: Inhibition of recombinant full-length human FYN assessed as residual activity at 10 uM using Cdc2 peptide as substrate measured after 40 mins in presence of [gamma33P]ATP by scintillation counting method
Sequence of Tyrosine-protein kinase Fyn (Homo sapiens) (P06241 2-537 limits assumed): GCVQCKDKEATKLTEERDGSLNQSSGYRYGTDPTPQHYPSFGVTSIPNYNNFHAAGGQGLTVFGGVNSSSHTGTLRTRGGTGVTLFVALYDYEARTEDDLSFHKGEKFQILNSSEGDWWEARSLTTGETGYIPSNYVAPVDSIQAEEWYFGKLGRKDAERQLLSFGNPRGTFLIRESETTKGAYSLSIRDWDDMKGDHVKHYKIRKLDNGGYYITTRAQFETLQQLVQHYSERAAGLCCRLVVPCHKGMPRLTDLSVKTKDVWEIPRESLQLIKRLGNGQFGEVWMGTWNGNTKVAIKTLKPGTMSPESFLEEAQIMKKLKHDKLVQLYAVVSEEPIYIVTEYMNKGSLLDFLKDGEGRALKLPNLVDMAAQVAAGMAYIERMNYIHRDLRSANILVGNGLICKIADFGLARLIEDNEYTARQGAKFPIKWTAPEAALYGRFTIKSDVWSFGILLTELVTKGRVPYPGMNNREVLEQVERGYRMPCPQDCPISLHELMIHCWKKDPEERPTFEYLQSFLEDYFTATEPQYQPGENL

[21] = molecular target: Leukocyte tyrosine kinase receptor (Homo sapiens) (UniProt P29376); experiment: Inhibition of recombinant human LTK (450 to end residues) assessed as residual activity at 10 uM using GEEPLYWSFPAKKK as substrate measured after 40 mins in presence of [gamma33P]ATP by scintillation counting method
Sequence of Leukocyte tyrosine kinase receptor (Homo sapiens) (P29376 whole entry): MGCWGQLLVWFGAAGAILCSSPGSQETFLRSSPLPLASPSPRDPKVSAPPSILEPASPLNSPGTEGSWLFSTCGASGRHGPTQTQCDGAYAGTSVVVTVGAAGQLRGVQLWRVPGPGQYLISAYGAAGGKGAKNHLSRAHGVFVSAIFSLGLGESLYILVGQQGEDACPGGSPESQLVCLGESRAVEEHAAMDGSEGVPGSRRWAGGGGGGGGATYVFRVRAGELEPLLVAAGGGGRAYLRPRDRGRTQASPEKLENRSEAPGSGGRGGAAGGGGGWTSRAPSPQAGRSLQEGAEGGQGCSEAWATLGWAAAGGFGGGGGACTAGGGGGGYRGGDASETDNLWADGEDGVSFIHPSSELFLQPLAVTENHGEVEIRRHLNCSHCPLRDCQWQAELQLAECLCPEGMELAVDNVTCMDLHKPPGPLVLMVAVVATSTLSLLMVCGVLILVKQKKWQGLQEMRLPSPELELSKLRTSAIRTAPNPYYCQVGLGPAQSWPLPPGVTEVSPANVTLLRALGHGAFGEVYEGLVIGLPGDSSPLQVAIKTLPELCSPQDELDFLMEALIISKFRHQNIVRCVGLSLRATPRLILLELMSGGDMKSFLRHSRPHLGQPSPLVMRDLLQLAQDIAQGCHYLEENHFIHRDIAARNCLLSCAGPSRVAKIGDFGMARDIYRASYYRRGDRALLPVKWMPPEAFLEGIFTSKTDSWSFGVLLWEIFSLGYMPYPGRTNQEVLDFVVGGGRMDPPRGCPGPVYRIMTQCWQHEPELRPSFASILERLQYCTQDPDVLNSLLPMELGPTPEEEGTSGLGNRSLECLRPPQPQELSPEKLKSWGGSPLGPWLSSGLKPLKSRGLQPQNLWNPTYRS

[22] = molecular target: Serine/threonine-protein kinase pim-3 (Homo sapiens) (UniProt Q86V86); experiment: Inhibition of recombinant human Pim3 (2 to end residues) assessed as residual activity at 10 uM using RSRHSSYPAGT as substrate measured after 40 mins in presence of [gamma33P]ATP by scintillation counting method
SW-620 [23] = experiment: Induction of apoptosis in human SW620 cells assessed as late apoptotic cells at 50 nM measured after 48 hrs by Annexin V-FITC/propidium iodide staining-based flow cytometry (reference value: 1.8%); type: functional

`Cc1cc(C)c(CNc2nc(Cl)nc3c2ncn3C2CCCC2)c(=O)[nH]1` showed an inhibition at 0.05 µM (HCT-116 [1]) of 100%, an Activity [2] of 107% and an Activity [3] of 93.5%. It also gave an Activity [4] of 110%, an Activity [5] of 80% and an Activity [6] of 104%. It also gave an Activity (Mus musculus) of 104%, an Activity [7] of 108% and an Activity [8] of 98.5%. For the same molecule, the Activity [9] was 130%, the Activity [10] was 99.5% and the Activity [11] was 88%. For the same molecule, the Activity [12] was 108%, the Activity (HCT-116 [13]) was “Active” and the Activity (HCT-116 [14]) was 1.54%. The Activity (SW-620 [15]) was “Active”, the Activity [16] was “Non-Toxic” and the Activity [17] was 103%. For the same molecule, the Activity [18] was 103%, the Activity [19] was 91% and the Activity [20] was 98%. The Activity [21] was 102%, the Activity [22] was 107% and the Activity (SW-620 [23]) was 9.24%.
